Measurements from patent publication US8748624B2, “Picolinamido-propanoic acid derivatives useful as glucagon receptor antagonists” (Janssen Pharmaceutica NV, priority 2011, dated 2014).

Columns and labels:
[1] = target: human glucagon receptor (GCGR) (Homo sapiens (Human), UniProt P47871); assay: Inhibition of 125I-glucagon binding to membranes from HEK293 cells expressing the human glucagon receptor; conditions: membranes of hGluc-1 HEK cells, 125I-glucagon 0.3 nM, 2 hours room temperature; IC50 converted to Ki; average if tested more than once
Sequence of human glucagon receptor (GCGR) (P47871 26-477): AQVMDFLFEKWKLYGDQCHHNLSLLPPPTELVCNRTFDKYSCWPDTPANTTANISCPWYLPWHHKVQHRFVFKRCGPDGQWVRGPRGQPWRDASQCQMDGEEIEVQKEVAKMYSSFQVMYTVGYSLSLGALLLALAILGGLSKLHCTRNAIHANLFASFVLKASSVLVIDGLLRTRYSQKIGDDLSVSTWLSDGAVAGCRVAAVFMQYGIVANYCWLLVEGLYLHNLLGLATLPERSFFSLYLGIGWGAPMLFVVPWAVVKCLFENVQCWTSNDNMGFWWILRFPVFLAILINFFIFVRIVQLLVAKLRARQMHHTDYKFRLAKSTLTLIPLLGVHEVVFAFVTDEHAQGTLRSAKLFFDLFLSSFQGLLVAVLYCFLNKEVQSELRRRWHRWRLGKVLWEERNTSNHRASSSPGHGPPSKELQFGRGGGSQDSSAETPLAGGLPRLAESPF
Procedure: Inhibition ^125I-Glucagon Binding to Membranes from HEK293 Cells Expressing the Human Glucagon Receptor (GCGR)
Full-length human GCGR (Accession Number: NM000160) subcloned into pcDNA3.1 was stably transfected into HEK293 cells (hGluc-1 HEK) and maintained under G418 selection (500 μg/mL). Cell cultures were maintained in DMEM/F12 media supplemented with 10% FBS and 1% GlutaMax. Membranes were prepared from these cells as follows: cells were harvested from T225 flasks and re-suspended in hypotonic lysis buffer, 50 mM HEPES pH 7.4 supplemented with Complete Protease inhibitors (Boehringer Mannheim, Indianapolis, Ind.). Cells were dounced 20 times on ice and spun at 700×g to remove nuclei and unlysed cells. The resulting pellet was re-suspended in hypotonic lysis buffer and the above step was repeated. Supernatants from the low speed centrifugation were combined and subsequently spun at 100K×g for 1 hr at 4° C. and the resulting pellet was re-suspended in buffer containing 50 mM HEPES pH 7.4 and 10% sucrose and the protein concentration was adjusted at 1 mg/mL as determined in the BCA assay. Membranes were aliquoted and stored at −80° C. The binding assay was performed by a filtration method in a 384 well format. Membranes at a final protein concentration of 6 μg/well were incubated with ^125I-glucagon at 0.3 nM and in the presence of compound for 2 hours at room temperature in a total reaction volume of 40 μL per well. Assay buffer consisted of 50 mM HEPES, pH 7.4, 5 mM MgCl2, 1 mM CaCl2 and 0.2% BSA. 30 μL of the reaction was then transferred to PEI treated filter plates and followed by filter aspiration. Plates were then washed 5× and allowed to dry at room temperature overnight. The next day the bottom of the plate was covered with seal tape and scintillant was added. Total counts retained by the filters were quantified with a Top Count instrument. IC50's were generated by using a non-linear regression macro driven in Excel and converted to K's.

human GCGR = human GCGR (Homo sapiens (Human), UniProt P47871); assay: Cellular functional assay, cAMP readout (glucagon-stimulated cAMP in HEK293 cells expressing human GCGR); assay type: cell-based; conditions: hGluc-1 HEK cells, LANCE TR-FRET, IC50 converted to Ki, average if tested more than once
Sequence of human GCGR (P47871 26-477): as above
Procedure: IC50 Values in Cellular Functional Assays: cAMP Readout
Full-length human GCGR (Accession Number: NM000160) subcloned into pcDNA3.1 was stably transfected into HEK293 cells (hGluc-1 HEK) and maintained under G418 selection (500 μg/mL). Cell cultures were maintained in DMEM/F12 media supplemented with 10% FBS and 1% GlutaMax. Glucagon stimulated cAMP was quantified using LANCE technology as per manufacturer instructions. On the day of the experiment, spent media was removed and cells were washed with Hank's Buffered Saline solution (HBSS) and cells were harvested with non-enzymatic cell dissociation solution, then washed once with HBSS. Cells were re-suspended in stimulation buffer at a concentration of 0.83×10^6 cells/ml and cAMP detection antibody was added. 6 μl/well of this solution was then dispensed in a 384 well plate (cell density 5000 cells/well). Test compound was serially diluted in DMSO and 50 nl were dispensed on top of the cell solution and allowed to incubate for 30 minutes. 6 μl of a 2× glucagon solution (final concentration in assay […]) was then added and the reaction was terminated after 5 minutes with the addition of detection mix. The mixture was incubated, protected from light for 1.5 h. cAMP levels were quantified by TR-FRET in an EnVision instrument against a known standard. IC50's were generated by using a non-linear regression macro driven in Excel and converted to K, values.

Structure (SMILES) | Ki [1] [nM] | Ki (human GCGR) [nM]
O=C(O)CCNC(=O)c1ccc(-c2ccccc2CNc2ccc(-c3ccccc3)cc2)cn1 [Compound 1, 3-(5-(2-(([1,1′-biphenyl]-4-ylamino)methyl)phenyl)picolinamido)propanoic acid] | > 5400 | > 10400
O=C(O)CCNC(=O)c1ccc(-c2ccccc2CNc2ccc(-c3ccc(Cl)cc3)cc2)cn1 [Compound 2, 3-(5-(2-(((4′-chloro-[1,1′-biphenyl]-4-yl)amino)methyl)phenyl)picolinamido)propanoic acid] | 187 | 510
CC(C)(C)c1ccc(-c2ccc(NCc3ccccc3-c3ccc(C(=O)NCCC(=O)O)nc3)cc2)cc1 [Compound 3, 3-(5-(2-(((4′-(tert-butyl)-[1,1′-biphenyl]-4-yl)amino)methyl)phenyl)picolinamido)propanoic acid] | > 5400 | > 10400
O=C(O)CCNC(=O)c1ccc(-c2ccc(Cl)cc2CNc2ccc(-c3ccc(Cl)cc3)cc2)cn1 [Compound 4, 3-(5-(4-chloro-2-(((4′-chloro-[1,1′-biphenyl]-4-yl)amino)methyl)phenyl)picolinamido)propanoic acid] | 64.9 | 210
O=C(O)CCNC(=O)c1ccc(-c2ccc(Cl)cc2CNc2ccc(-c3ccc(Cl)cc3Cl)cc2)cn1 [Compound 5, 3-(5-(4-chloro-2-(((2′,4′-dichloro-[1,1′-biphenyl]-4-yl)amino)methyl)phenyl)picolinamido)propanoic acid] | 67.1 | 181
O=C(O)CCNC(=O)c1ccc(-c2cc(Cl)ccc2CNc2ccc(-c3ccc(Cl)cc3)cc2)cn1 [Compound 6, 3-(5-(5-chloro-2-(((4′-chloro-[1,1′-biphenyl]-4-yl)amino)methyl)phenyl)picolinamido)propanoic acid] | 40.1 | 50.5
O=C(O)CCNC(=O)c1ccc(-c2cc(Cl)ccc2CNc2ccc(-c3ccc(Cl)cc3Cl)cc2)cn1 [Compound 7, 3-(5-(5-chloro-2-(((2′,4′-dichloro-[1,1′-biphenyl]-4-yl)amino)methyl)phenyl)picolinamido)propanoic acid] | 22.4 | 44.8
O=C(O)CCNC(=O)c1ccc(-c2ccccc2CNc2ccc(-c3ccc(Cl)c(Cl)c3)cc2)cn1 [Compound 8, 3-(5-(2-(((3′,4′-dichloro-[1,1′-biphenyl]-4-yl)amino)methyl)phenyl)picolinamido)propanoic acid] | 94.3 | 565
O=C(O)CCNC(=O)c1ccc(-c2ccccc2CNc2ccc(-c3ccc(C(F)(F)F)cc3)cc2)cn1 [Compound 9] | 95.7 | 550
O=C(O)CCNC(=O)c1ccc(-c2cc(Cl)ccc2CNc2ccc(-c3ccc(Cl)cc3)c(Cl)c2)cn1 [Compound 10, 3-(5-(5-chloro-2-(((2,4′-dichloro-[1,1′-biphenyl]-4-yl)amino)methyl)phenyl)picolinamido)propanoic acid] | 31.2 | 110
O=C(O)CCNC(=O)c1ccc(-c2cc(Cl)ccc2CNc2ccc(-c3ccc(Cl)cc3Cl)cc2F)cn1 [Compound 11, 3-(5-(5-chloro-2-(((2′,4′-dichloro-3-fluoro-[1,1′-biphenyl]-4-yl)amino)methyl)phenyl)picolinamido)propanoic acid] | 41.2 | 265
O=C(O)CCNC(=O)c1ccc(-c2cc(Cl)ccc2CNc2ccc(-c3ccc(Cl)cc3)cc2F)cn1 [Compound 12, 3-(5-(5-chloro-2-(((4′-chloro-3-fluoro-[1,1′-biphenyl]-4-yl)amino)methyl)phenyl)picolinamido)propanoic acid] | 53 | 500
O=C(O)CCNC(=O)c1ccc(-c2cc(Cl)ccc2CNc2ccc(-c3ccc(Cl)c(F)c3)cc2F)cn1 [Compound 13, 3-(5-(5-chloro-2-(((4′-chloro-3,3′-difluoro-[1,1′-biphenyl]-4-yl)amino)methyl)phenyl)picolinamido)propanoic acid] | 39.3 | 311
O=C(O)CCNC(=O)c1ccc(-c2cc(Cl)ccc2CNc2ccc(-c3ccc(F)cc3)cc2)cn1 [Compound 15, 3-(5-(5-chloro-2-(((4′-fluoro-[1,1′-biphenyl]-4-yl)amino)methyl)phenyl)picolinamido)propanoic acid] | 33.9 | 90.6
O=C(O)CCNC(=O)c1ccc(-c2cc(Cl)ccc2C(=O)Nc2ccc(-c3ccc(Cl)cc3)cc2)cn1 [Compound 16, 3-(5-(5-chloro-2-((4% chloro-[1,1′-biphenyl]-4-yl)carbamoyl)phenyl)picolinamido)propanoic acid] | 43.8 | 50.5
CN(Cc1ccc(Cl)cc1-c1ccc(C(=O)NCCC(=O)O)nc1)c1ccc(-c2ccc(Cl)cc2)cc1 [Compound 17, 3-(5-(5-chloro-2-(((4′-chloro-[1,1′-biphenyl]-4-yl)(methyl)amino)methyl)phenyl)picolinamido)propanoic acid] | 1480 | > 10400
O=C(O)CCNC(=O)c1ccc(-c2cc(Cl)ccc2C(=O)Nc2ccc(-c3ccc(Cl)cc3Cl)cc2)cn1 [Compound 19, 3-(5-(5-chloro-2-((2′,4′-dichloro-[1,1′-biphenyl]-4-yl)carbamoyl)phenyl)picolinamido)propanoic acid] | 39.6 | 45.8
O=C(O)CCNC(=O)c1ccc(-c2cc(Cl)ccc2C(=O)Nc2ccc(-c3ccc(F)cc3)cc2)cn1 [Compound 20, 3-(5-(5-chloro-2-((4′-fluoro-[1,1′-biphenyl]-4-yl)carbamoyl)phenyl)picolinamido)propanoic acid] | 61.4 | 158
Cc1cc(Cl)ccc1-c1ccc(NCc2ccc(C(F)(F)F)cc2-c2ccc(C(=O)NCCC(=O)O)nc2)cc1 [Compound 22, 3-(5-(2-(((4′-chloro-2′-methyl-[1,1′-biphenyl]-4-yl)amino)methyl)-5-(trifluoromethyl)phenyl)picolinamido)propanoic acid] | 25.2 | 22.4
O=C(O)CCNC(=O)c1ccc(-c2cc(C(F)(F)F)ccc2CNc2ccc(-c3ccc(F)cc3Cl)cc2)cn1 [Compound 23, 3-(5-(2-(((2′-chloro-4′-fluoro-[1,1′-biphenyl]-4-yl)amino)methyl)-5-(trifluoromethyl)phenyl)picolinamido)propanoic acid] | 26.1 | 130
O=C(O)CCNC(=O)c1ccc(-c2cc(C(F)(F)F)ccc2CNc2ccc(-c3ccc(C(F)(F)F)cc3Cl)cc2)cn1 [Compound 24, 3-(5-(2-(((2′-chloro-4′-(trifluoromethyl)-[1,1′-biphenyl]-4-yl)amino)methyl)-5-(trifluoromethyl)phenyl)picolinamido)propanoic acid] | 28.3 | 32.4
O=C(O)CCNC(=O)c1ccc(-c2cc(C(F)(F)F)ccc2CNc2ccc(-c3ccc(F)c(C(F)(F)F)c3)cc2)cn1 [Compound 26, 3-(5-(2-(((4′-fluoro-3′-(trifluoromethyl)-[1,1′-biphenyl]-4-yl)amino)methyl)-5-(trifluoromethyl)phenyl)picolinamido)propanoic acid] | 29.6 | 175
Cc1cc(Cl)ccc1-c1ccc(NCc2c(-c3ccc(C(=O)NCCC(=O)O)nc3)cc(C(F)(F)F)cc2C2CC2)cc1Cl [Compound 178, 3-(5-(3-cyclopropyl-2-(((2,4′-dichloro-2′-methyl-[1,1′-biphenyl]-4-yl)amino)methyl)-5-(trifluoromethyl)phenyl)picolinamido)propanoic acid] | – | 6.3
Cc1cc(C(F)(F)F)ccc1-c1ccc(NCc2c(-c3ccccc3)cc(C(F)(F)F)cc2-c2ccc(C(=O)NCCC(=O)O)nc2)cc1Cl [Compound 179, 3-(5-(2-(((2-chloro-2′-methyl-4′-(trifluoromethyl)-[1,1′-biphenyl]-4-yl)amino)methyl)-5-(trifluoromethyl)-[1,1′-biphenyl]-3-yl)picolinamido)propanoic acid] | – | 19.6
